Paper PMC11694611, “α‐Triazolylboronic Acids: A Novel Scaffold to Target FLT3 in AML” (Chemmedchem, 2024)
Where two headings read alike, the source gives them in different places.

Tests used:
[1] = target: T1, recombinant His-tagged FLT3 kinase domain (aa 569–992) (Homo sapiens, UniProt P36888); test: ELISA-based in vitro FLT3 kinase assay; type: biochemical; conditions: recombinant FLT3, 300 μM ATP
T1 construct: FLT3 kinase domain (aa 569–992); His; made in house; host or cells: Sf9 cells
T1 sequence (P36888 569-992): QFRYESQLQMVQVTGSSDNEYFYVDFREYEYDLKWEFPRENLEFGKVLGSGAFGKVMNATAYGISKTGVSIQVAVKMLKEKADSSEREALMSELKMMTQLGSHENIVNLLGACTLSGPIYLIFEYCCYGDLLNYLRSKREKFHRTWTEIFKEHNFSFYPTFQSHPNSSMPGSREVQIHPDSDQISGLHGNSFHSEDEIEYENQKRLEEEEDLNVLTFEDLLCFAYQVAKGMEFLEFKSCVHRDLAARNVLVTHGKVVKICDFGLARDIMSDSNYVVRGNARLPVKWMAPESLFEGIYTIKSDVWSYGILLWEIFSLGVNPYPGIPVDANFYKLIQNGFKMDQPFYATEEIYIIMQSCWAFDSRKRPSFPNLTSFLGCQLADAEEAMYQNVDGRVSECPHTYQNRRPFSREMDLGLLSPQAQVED
Description: (§1) In vitro kinase assays and cell viability assays were performed as described (Mologni et al., 2022).[50] Briefly, recombinant His‐tagged FLT3 kinase domain (aa 569–992) was expressed in Sf9 cells and purified by nickel ion affinity chromatography. The purified enzyme was employed in an ELISA‐based kinase assay with 300 μM ATP and a Tyr‐phosphorylatable substrate peptide, using an anti‐phosphotyrosine antibody for detection (PY20; Santa Cruz Biotech). Cell viability was determined by MTS assay using the CellTiter 96® AQueous One Solution Cell Proliferation Assay kit (Promega) according to manufacturer's instructions. Dose‐response curves were calculated by non‐linear regression (log[inhibitor] vs normalized response) using GraphPad Prism software.

[2] = test system: MV-4-11 cells (FLT3-ITD); test: Cell viability by MTS assay, MV-4-11 cells; type: cell-based; conditions: Homo sapiens, MV4-11, read-out: MV-4-11 (IC50, mean±SEM)
Description: Cellular assays were carried out on MV‐4‐11 cells, driven by the FLT3‐ITD mutation.
as §1, with “The” for “In vitro kinase assays and cell viability assays were performed as described (Mologni et al., 2022).[50] Briefly, recombinant His‐tagged FLT3 kinase domain (aa 569–992) was expressed in Sf9 cells and purified by nickel ion affinity chromatography. The”

[3] = test system: MOLM-14 cells (FLT3-ITD); test: Cell viability by MTS assay, MOLM-14 cells; type: cell-based; conditions: Homo sapiens, read-out: MOLM-14 (IC50, mean±SEM)
[4] = test system: FLT3-wild type HL60 cells; test: Cytotoxicity by MTS assay, control cell line HL60; type: cell-based; conditions: for IC50: Homo sapiens, HL-60, read-out: HL60 (IC50, mean±SEM)
Description: Compounds 4 a, 4 d, 4 e, 4 g and 4 q were among the best inhibitors in enzymatic assays and confirmed their activity also in cellular tests on FLT3‐driven MV‐4‐11 and on MOLM‐14 cell lines. To confirm their cellular mechanism of action, we assayed their cytotoxicity against FLT3‐wild type HL60 cells.
as §1

[5] = cited from earlier work
[6] = Table 1, read-out: FLT3 Kinase Activity (IC50, mean±SEM)
[7] = Table 2, FLT3-ITD cell line, MTS viability
[8] = Table 3, FLT3-wild type control cell line
[9] = Table 2, read-out: FLT3 Kinase (IC50, mean±SEM)
[10] = Table 4, control analogues lacking boronic group

## O=C(Nc1ccccc1)NC(Cc1cccc(C(=O)O)c1)B(O)O (stereo not shown) [1 a]
[1]; [6]
  IC50: > 100 µM

## O=C(Cc1ccc(-c2nn[nH]n2)cc1)NCB(O)O [1 b]
[1]; [6]
  IC50: > 100 µM

## Cc1onc(-c2ccccc2Cl)c1C(=O)NCB(O)O [1 c]
[1]; [6]
  IC50: > 100 µM

## O=C(Cc1cccs1)NC(B(O)O)c1ccccc1 (stereo not shown) [1 d]
[1]; [6]
  IC50: > 100 µM

## O=C(NCB(O)O)c1ccc(-c2nnn[nH]2)cc1 [1 e]
[1]; [6]
  IC50: > 100 µM

## O=C(CSc1ccncc1)NCB(O)O [1 f]
[1]; [6]
  IC50: > 100 µM

## O=C(Cc1ccc(O)c(O)c1)NCB(O)O [1 g]
[1]; [6]
  IC50: > 100 µM

## Nc1cccc(-c2cn(CC(NC(=O)Cc3ccccc3)B(O)O)nn2)c1 (stereo not shown) [2 a]
[1]; [6]
  IC50: > 100 µM

## NC(=O)c1cn(CC(NC(=O)Cc2cccs2)B(O)O)nn1 (stereo not shown) [2 b]
[1]; [6]
  IC50: > 100 µM

## Nc1nnc(SCC(=O)NC(Cn2cc(C(=O)O)nn2)B(O)O)s1 (stereo not shown) [2 c]
[1]; [6]
  IC50: > 100 µM

## CC(=O)NC(Cn1cc(-c2ccccc2)nn1)B(O)O (stereo not shown) [2 d]
[1]; [6]
  IC50: > 100 µM

## CC(=O)NC(Cn1cc(C(C)(C)O)nn1)B(O)O (stereo not shown) [2 e]
[1]; [6]
  IC50: > 100 µM

## O=S(=O)(Cc1ccccc1)NCB(O)O [3 a]
[1]; [6]
  IC50: > 100 µM

## CC(C)C(NS(=O)(=O)Cc1ccccc1)B(O)O (stereo not shown) [3 b]
[1]; [6]
  IC50: > 100 µM

## CC(NS(=O)(=O)Cc1ccccc1)B(O)O (stereo not shown) [3 c]
[1]; [6]
  IC50: > 100 µM

## Cc1ccc(S(=O)(=O)Nc2cccc(-c3cn(CB(O)O)nn3)c2)cc1 [4 a]
[1]; [6]
  IC50: 18 ± 1 µM
[2]; [7]
  IC50: 14 ± 0.2 µM
[3]; [7]
  IC50: 5.8 ± 0.7 µM
[4]; [8]
  IC50: > 100 µM

## NC(=O)c1cccc(-c2cn(CB(O)O)nn2)c1 [4 b]
[1]; [6]
  IC50: > 100 µM
[2]; [7]
  IC50: > 100 µM

## O=C(O)c1cccc(-c2cn(CB(O)O)nn2)c1 [4 c]
[1]; [6]
  IC50: > 100 µM
[2]; [7]
  IC50: > 100 µM

## Cc1cccc(-c2cn(CB(O)O)nn2)c1 [4 d]
[1]; [6]
  IC50: 25 ± 2 µM
[2]; [7]
  IC50: 11 ± 1 µM
[3]; [7]
  IC50: 3 ± 0.5 µM
[4]; [8]
  IC50: 32 ± 4 µM
  HL60 (IC50, mean±SEM): moderate inhibition of HL60

## Nc1cccc(-c2cn(CB(O)O)nn2)c1 [4 e]
[1]; [6]
  IC50: 6.7 ± 1.7 µM
[2]; [7]
  IC50: 14 ± 3 µM
[3]; [7]
  IC50: 11 ± 1 µM
[4]; [8]
  IC50: > 100 µM

## NS(=O)(=O)c1cccc(-c2cn(CB(O)O)nn2)c1 [4 f]
[1]; [6]
  IC50: > 100 µM
[2]; [7]
  IC50: > 100 µM

## OB(O)Cn1cc(-c2cccc(Cl)c2)nn1 [4 g]
[1]; [6]
  IC50: 18 ± 5 µM
[2]; [7]
  IC50: 2.7 ± 0.9 µM
[3]; [7]
  IC50: 0.68 ± 0.08 µM
[4]; [8]
  IC50: 15 ± 1 µM
  HL60 (IC50, mean±SEM): moderate inhibition of HL60

## OB(O)Cn1cc(-c2cnccn2)nn1 [4 h]
[1]; [9]
  IC50: > 100 µM
[2]; [7]
  IC50: > 100 µM

## OB(O)Cn1cc(-c2cccnc2)nn1 [4 i]
[1]; [9]
  IC50: > 100 µM
[2]; [7]
  IC50: > 100 µM

## OB(O)Cn1cc(-c2cccs2)nn1 [4 j]
[1]; [9]
  IC50: 76 ± 13 µM
[2]; [7]
  IC50: 100 µM
[3]; [7]
  IC50: 11 ± 2 µM

## O=S(=O)(CC(F)(F)F)NCc1cn(CB(O)O)nn1 [4 k]
[1]; [9]
  IC50: 5.8 ± 0.9 µM
[2]; [7]
  IC50: > 100 µM

## O=S(=O)(NCc1cn(CB(O)O)nn1)c1cccs1 [4 l]
[1]; [9]
  IC50: 25 ± 5 µM
[2]; [7]
  IC50: > 100 µM

## COC(=O)c1ccc(CS(=O)(=O)NCc2cn(CB(O)O)nn2)cc1 [4 m]
[1]; [9]
  IC50: > 100 µM
[2]; [7]
  IC50: > 100 µM

## O=C(O)c1cccc(CS(=O)(=O)NCc2cn(CB(O)O)nn2)c1 [4 n]
[1]; [9]
  IC50: > 100 µM
[2]; [7]
  IC50: > 100 µM

## COC(=O)c1cccc(CS(=O)(=O)NCc2cn(CB(O)O)nn2)c1 [4 o]
[1]; [9]
  IC50: 65 ± 11 µM
[2]; [7]
  IC50: > 100 µM

## CS(=O)(=O)NCc1cn(CB(O)O)nn1 [4 p]
[1]; [9]
  IC50: 42 ± 5 µM
[2]; [7]
  IC50: > 100 µM

## Cc1ccc(S(=O)(=O)Nc2cccc(OCc3cn(CB(O)O)nn3)c2)cc1 [4 q]
[1]; [9]
  IC50: 18 ± 3 µM
[2]; [7]
  IC50: 10 ± 1 µM
[3]; [7]
  IC50: 4.3 ± 0.5 µM
[4]; [8]
  IC50: > 100 µM

## OB(O)Cn1cc(COc2ccccc2)nn1 [4 r]
[1]; Table 2
  FLT3 Kinase (IC50, mean±SEM): do not inhibit FLT3
[1]; [9]
  IC50: > 100 µM
[2]; [7]
  IC50: 1.1 ± 0.1 µM
[3]; [7]
  IC50: 0.16 ± 0.01 µM

## O=C(NCc1cn(CB(O)O)nn1)c1ccccc1 [4 t]
[1]; [9]
  IC50: 3.2 ± 0.4 µM
[2]; [7]
  IC50: > 100 µM

## OB(O)Cn1cc(CNc2ccccc2)nn1 [4 u]
[1]; Table 2
  FLT3 Kinase (IC50, mean±SEM): lose enzymatic activity
[1]; [9]
  IC50: > 100 µM
[2]; [7]
  IC50: 7.6 ± 3.9 µM
[3]; [7]
  IC50: 8.7 ± 1.4 µM

## O=C(NCc1cn(CB(O)O)nn1)C(F)(F)F [4 v]
[1]; Table 2
  FLT3 Kinase (IC50, mean±SEM): lose enzymatic activity
[1]; [9]
  IC50: > 100 µM
[2]; [7]
  IC50: > 100 µM

## O=C(OCc1cn(CB(O)O)nn1)c1ccccc1 [4 w]
[1]; Table 2
  FLT3 Kinase (IC50, mean±SEM): do not inhibit FLT3
[1]; [9]
  IC50: > 100 µM
[2]; [7]
  IC50: 1.4 ± 0.3 µM
[3]; [7]
  IC50: 0.35 ± 0.01 µM

## Nc1ccc(-c2cn(CC(=O)O)nn2)cc1 [5 e, 2‐(4‐(4‐aminophenyl)‐1H‐1,2,3‐triazol‐1‐yl)acetic acid]
[2]; [10]
  IC50: > 100 µM
[3]; [10]
  IC50: > 100 µM
[4]; [10]
  IC50: > 100 µM

## CCCCn1cc(-c2ccc(N)cc2)nn1 [6 e, 4‐(1‐butyl‐1H‐1,2,3‐triazol‐4‐yl)aniline]
[2]; [10]
  IC50: > 100 µM
[3]; [10]
  IC50: > 100 µM
[4]; [10]
  IC50: > 100 µM

## [Cl-].[Na+] [NaCl]
[5]
  LD50: 3000 mg/kg

## Cc1ccc(C(=O)Nc2ccc(CN3CCN(C)CC3)c(C(F)(F)F)c2)cc1C#Cc1cnc2cccnn12 [ponatinib, reference compound]
[2]; [7]
  IC50: 0.007 ± 0.002 µM
[3]; [7]
  IC50: 0.001 ± 0.0001 µM
